# “Also recorded” adds a separate entry of the source.
# Test system: isolated mitochondria from rat heart
# Assay: Mitochondrial respiration / oxidative phosphorylation (oxygraph)
# Format: biochemical
# Method: Male Wistar rats (250-325 g; obtained from Janvier Labs, Le Genest-Saint-Isle, France) were killed by stunning and cervical dislocation, and the heart was quickly removed and washed in cold isolation medium containing 100 mM sucrose, 180 mM KCl, 50 mM Tris, 5 mM MgCl2, 10 mM EDTA, and 0.1% (w/v) defatted BSA (pH 7.2).
# Isolation of heart mitochondria was performed in a cold chamber. Before homogenization, hearts (about 1.5 g) were minced with scissors and treated for 5 minutes in 5 mL of the same medium supplemented with protease (2 mg of bacterial proteinase type XXIV per mL of isolation buffer) with stirring. The tissue suspension was poured into a 50-mL glass Potter homogenizer, diluted with 20 mL of isolation buffer, then homogenized for 3 minutes using a motorized Teflon pestle. The homogenate was filtered through bolting cloth (Sefar Nitex) to remove debris, and centrifuged at 8,000 g for 10 minutes. The resulting pellet was rinsed with 5 mL of isolation buffer, resuspended in 25 mL of the same buffer, then subjected to low speed centrifugation (400 g) for 8 minutes. […] Protein concentration was determined by the Bradford method (Sigma, kit #B6916) using BSA as standard. […]
# Oxygen consumption rates of heart mitochondria (0.1 mg/mL), incubated in the absence or presence of AOL at increasing doses (from 0 to 80 μM final concentration), were recorded polarographically under constant stirring at 25° C. using a high-resolution oximeter (Oxygraph-2K, Oroboros Instruments, Austria). […]
# Isolation of heart mitochondria was performed in a cold chamber. […] Protein concentration was determined by the Bradford method (Sigma, kit # B6916) using BSA as standard. […]
# Oxygen consumption rates of heart mitochondria (0.1 mg/mL), incubated in the absence or presence of AOX at increasing doses (from 0 to 100 μM final concentration), were recorded polarographically under constant stirring at 25° C. using a high-resolution oximeter (Oxygraph-2K, Oroboros Instruments, Austria). […]
Compound,"effect on mitochondrial respiration / oxidative phosphorylation (AOL 5 to 80 μM, glutamate+malate, succinate(+rotenone) or all substrates, substrate, ADP and ATR states)","oxidation rate under substrate state and ATR state (AOX 20 to 100 μM, succinate (+ rotenone))",concentrations with uncoupling effect on oxidative phosphorylation (succinate (+ rotenone))
"COc1ccc(-c2cc(=S)ss2)cc1 [AOL, 5-(4-methoxyphenyl)-3H-1,2-dithiole-3-thione]",no statistical differences in mitochondrial respiration; also recorded: statistically no differences were observed,–,–
"Oc1ccc(-c2cc(=S)ss2)cc1 [AOX, 5-(4-hydroxyphenyl)-3H-1,2-dithiole-3-thione]",–,increase for concentrations up to 50 μM followed by a decrease for concentrations over 50 μM,higher than 20 μM

# From patent US11484529B2, “Desmethylanethole trithione derivatives for the treatment of diseases linked to mitochondrial reactive oxygen species (ROS) production” (OP2 Drugs, priority 2017, dated 2022)
